Test results taken from patent US20130210860A1, “PROPHYLACTIC AND/OR THERAPEUTIC AGENT AGAINST LYMPHEDEMA” (KOWA CO., LTD., priority 2010, published 2013).

What was measured:
[1] = system: mouse model of abdominal wall lymphedema; assay: Mouse model of abdominal wall lymphedema, thickness of the skin section (wild-type mouse); format: in vivo, C57BL/6J mouse; details: for lymphedema (thickness of the skin): C57BL/6J mice, combined results of Experiments 2 and 3, pitavastatin 1 mg/kg/day, atorvastatin 2.5 or 1 mg/kg/day, pravastatin 1 mg/kg/day oral, after seven days, FIG. 2
Protocol: (§1) A male C57BL/6J mouse and a male eNOS-deficient mouse having a genetic background of C57BL/6J, both of which are eight weeks old at the time of surgery, each receives an intraperitoneal injection of Nembutal at 60 mg/kg, and further receives a subcutaneous injection of 1% Evans blue for identification of lymph nodes and lymphatic vessels in the dorsum of the right foot, the back of the hand, and the buttocks in an amount of 0.05 mL at each site. The abdominal hair was removed and the abdominal skin is incised in an open-door fashion so as to identify the inguinal lymph nodes, axillary lymph nodes, and lymphatic vessels connecting these lymph nodes in the right abdominal wall. The lymphatic vessels are ligated at two to three sites near the axillary lymph nodes, followed by excision of the axillary lymph nodes. Subsequently, the skin is sutured, whereby the surgery is completed. On the seventh day after the surgery, the abdominal skin is once again incised in an open-door fashion to collect the abdominal wall tissues. The mice were orally administered with the statins dissolved in distilled water (250 μl) from three days before to seven days after the surgery once a day. […] Methanol-fixed paraffin-embedded tissue sections were stained with hematoxylin, and the thickness of the skin section prepared from the upper inguinal area, which is the lowermost part of a mouse, was measured. Anatomically, interstitial fluid tends to be accumulated in this area.

[2] = system: mouse model of abdominal wall lymphedema; assay: Mouse model of abdominal wall lymphedema, thickness of the skin section (eNOS-deficient mouse); format: in vivo, eNOS-deficient mouse having a genetic background of C57BL/6J; details: Experiment 1, 10 mg/kg/day oral, once a day from three days before to seven days after the surgery, FIG. 1
Protocol: as §1, with “Anatomically, interstitial fluid tends to be accumulated in this area.” left out

[3] = system: mouse model of abdominal wall lymphedema; assay: Visual examination by lymphangiography (Evans blue): leakage of lymph fluid and lymphatic flow in the lymphedema model; format: in vivo, C57BL/6J mouse; details: C57BL/6J mice; administration method of Experiment 3 (1 mg/kg/day oral); lymphangiography on the seventh and fourteenth days after the surgery; FIG. 3
Protocol: A male C57BL/6J mouse and a male eNOS-deficient mouse having a genetic background of C57BL/6J, both of which are eight weeks old at the time of surgery, each receives an intraperitoneal injection of Nembutal at 60 mg/kg, and further receives a subcutaneous injection of 1% Evans blue for identification of lymph nodes and lymphatic vessels in the dorsum of the right foot, the back of the hand, and the buttocks in an amount of 0.05 mL at each site. The abdominal hair was removed and the abdominal skin is incised in an open-door fashion so as to identify the inguinal lymph nodes, axillary lymph nodes, and lymphatic vessels connecting these lymph nodes in the right abdominal wall. The lymphatic vessels are ligated at two to three sites near the axillary lymph nodes, followed by excision of the axillary lymph nodes. Subsequently, the skin is sutured, whereby the surgery is completed. […]
On the seventh and fourteenth days after the surgery, 0.05 μl of 1% Evans blue was locally injected into the inguinal lymph nodes for lymphangiography, whereby leakage of lymph fluid and lymphatic flow were evaluated.
Each statin was administered by the administration method employed in Experiment 3) and the leakage of lymph fluid and lymphatic flow were evaluated by lymphangiography of the lymph node tissues.

Row | Structure (SMILES) | lymphedema (thickness of the skin) [1] | lymphedema (thickness of the skin section prepared from the upper inguinal area) ([1]; wild-type mouse, Experiment 1, 10 mg/kg/day oral, once a day from three days before to seven days after the surgery, FIG. 1) | lymphedema (thickness of the skin section prepared from the upper inguinal area) [2] | leakage of lymph fluid [3]
1 | CC[C@H](C)C(=O)O[C@H]1C[C@H](O)C=C2C=C[C@H](C)[C@H](CC[C@@H](O)C[C@@H](O)CC(=O)O)[C@H]21 [pravastatin, (+)-(3R,5R)-3,5-dihydroxy-7-[(1S,2S,6S,8S,8aR)-6-hydroxy-2-methyl-8-[(S)-2-methylbutyryloxy]-1,2,6,7,8,8a-hexahydro-1-naphthyl]heptanoic acid] | markedly inhibit | – | – | –
2 | O=C(O)C[C@H](O)C[C@H](O)/C=C/c1c(C2CC2)nc2ccccc2c1-c1ccc(F)cc1 [pitavastatin, (3R,5S,6E)-7-[2-cyclopropyl-4-(4-fluorophenyl)-3-quinolyl]-3,5-dihydroxy-6-heptenoic acid] | markedly inhibit | markedly inhibited | markedly inhibited | markedly inhibited
